Assay results published in ChEMBL document CHEMBL1201862, “PubChem BioAssay data set” (2004).
Activity calls are given as the source filed them.

Columns and labels:
CAAX prenyl protease 1 = CAAX prenyl protease 1 (Saccharomyces cerevisiae S288c, UniProt P47154); experiment: Ste24 protease inhibitors, dose response, biochemical, S. cerevisiae, plate reader, cherry-pick (AID 488815)
[1] = A cytotoxicity screen of small molecule inhibitors of the PhoP region in Salmonella typhi identified in the primary screen. [Related pubchem assays: 1850, 1864, 1985 ]; type: functional
[2] = target: DNA repair protein RAD52 homolog (Homo sapiens, UniProt P43351); type: functional, biochemical
Sequence of DNA repair protein RAD52 homolog (P43351 whole entry): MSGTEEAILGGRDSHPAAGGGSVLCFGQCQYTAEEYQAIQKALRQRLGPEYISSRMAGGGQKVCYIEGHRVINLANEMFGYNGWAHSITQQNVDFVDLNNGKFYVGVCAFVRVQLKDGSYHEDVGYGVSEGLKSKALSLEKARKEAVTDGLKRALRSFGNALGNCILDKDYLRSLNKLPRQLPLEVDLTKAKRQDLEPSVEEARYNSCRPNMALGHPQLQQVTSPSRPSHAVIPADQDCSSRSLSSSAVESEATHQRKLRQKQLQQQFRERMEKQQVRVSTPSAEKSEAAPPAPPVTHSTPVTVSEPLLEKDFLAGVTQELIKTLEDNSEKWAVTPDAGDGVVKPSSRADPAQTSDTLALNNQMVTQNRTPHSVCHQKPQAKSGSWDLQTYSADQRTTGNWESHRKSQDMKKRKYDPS

[3] = target: T1, DNA repair and recombination protein RAD54-like (Homo sapiens, UniProt Q92698); experiment: inhibitors of human RAD54 branch migration, confirmation, biochemical, fluorescence, cherry-picked samples, dose series (AID 651657); type: functional
T1 sequence (Q92698 whole entry): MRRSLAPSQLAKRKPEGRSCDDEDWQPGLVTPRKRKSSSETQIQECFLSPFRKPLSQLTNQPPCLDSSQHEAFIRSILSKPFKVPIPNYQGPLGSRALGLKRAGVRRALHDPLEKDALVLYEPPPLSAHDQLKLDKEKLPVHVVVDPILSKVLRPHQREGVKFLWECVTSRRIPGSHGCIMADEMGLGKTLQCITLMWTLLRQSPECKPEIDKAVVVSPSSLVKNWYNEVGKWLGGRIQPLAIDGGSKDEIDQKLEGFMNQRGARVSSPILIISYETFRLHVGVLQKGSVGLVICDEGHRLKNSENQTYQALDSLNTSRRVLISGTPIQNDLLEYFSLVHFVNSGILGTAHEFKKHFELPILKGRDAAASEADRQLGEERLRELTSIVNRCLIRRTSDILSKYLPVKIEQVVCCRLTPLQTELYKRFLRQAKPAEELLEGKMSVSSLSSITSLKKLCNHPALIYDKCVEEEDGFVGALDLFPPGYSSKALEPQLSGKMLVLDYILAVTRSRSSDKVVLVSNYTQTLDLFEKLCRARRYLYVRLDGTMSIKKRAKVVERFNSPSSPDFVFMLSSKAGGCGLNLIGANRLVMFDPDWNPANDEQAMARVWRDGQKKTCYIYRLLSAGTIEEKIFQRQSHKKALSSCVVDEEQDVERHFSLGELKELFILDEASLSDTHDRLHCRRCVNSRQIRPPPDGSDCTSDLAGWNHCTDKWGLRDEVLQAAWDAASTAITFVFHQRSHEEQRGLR

[4] = target: T2, Short transient receptor potential channel 4 (Mus musculus, UniProt Q9QUQ5); experiment: mouse TRPC4 channel inhibitors, dose response, cell-based, HEK293 TRPC4/mu-opioid, Fluo-4 calcium (AID 434942); type: functional;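 also: potency of inhibitors blocking the TRPC4 calcium response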
T2 sequence (Q9QUQ5 whole entry): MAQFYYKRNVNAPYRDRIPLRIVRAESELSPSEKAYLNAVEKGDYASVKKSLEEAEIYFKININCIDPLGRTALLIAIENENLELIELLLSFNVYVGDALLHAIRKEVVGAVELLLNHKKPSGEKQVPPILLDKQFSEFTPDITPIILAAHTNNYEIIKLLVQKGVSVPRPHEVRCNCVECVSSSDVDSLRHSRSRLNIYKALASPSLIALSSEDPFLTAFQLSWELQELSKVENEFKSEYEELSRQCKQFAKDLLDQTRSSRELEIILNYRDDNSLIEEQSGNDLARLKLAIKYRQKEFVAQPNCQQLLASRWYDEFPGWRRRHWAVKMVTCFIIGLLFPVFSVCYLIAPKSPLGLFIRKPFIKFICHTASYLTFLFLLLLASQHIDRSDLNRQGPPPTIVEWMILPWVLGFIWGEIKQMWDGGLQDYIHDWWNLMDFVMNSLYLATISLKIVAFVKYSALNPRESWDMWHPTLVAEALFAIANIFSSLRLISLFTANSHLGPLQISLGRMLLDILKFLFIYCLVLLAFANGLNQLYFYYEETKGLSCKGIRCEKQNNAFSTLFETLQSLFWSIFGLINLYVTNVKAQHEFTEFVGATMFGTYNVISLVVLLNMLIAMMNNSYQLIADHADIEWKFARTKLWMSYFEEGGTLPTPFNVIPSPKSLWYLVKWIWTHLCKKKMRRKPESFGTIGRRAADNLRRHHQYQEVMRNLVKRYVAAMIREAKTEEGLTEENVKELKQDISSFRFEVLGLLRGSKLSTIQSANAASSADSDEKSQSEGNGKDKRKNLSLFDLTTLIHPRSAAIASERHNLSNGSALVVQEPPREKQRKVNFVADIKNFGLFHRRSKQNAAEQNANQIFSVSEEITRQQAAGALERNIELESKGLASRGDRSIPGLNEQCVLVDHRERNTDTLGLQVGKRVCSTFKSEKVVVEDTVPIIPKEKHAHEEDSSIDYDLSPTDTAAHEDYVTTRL

BJ [5] = experiment: cells; type: functional, cell-based; settings: Homo sapiens
[6] = target: T3, Orexin/Hypocretin receptor type 1 (Homo sapiens, UniProt O43613); experiment: (§1) Fluorescence-based cell-based high throughput dose response assay for antagonists of the orexin 1 receptor (OX1R; HCRTR1). [Related pubchem assays (depositor defined):AID434989, AID435008, AID463079, AID485270, AID492963, AID492964, AID492965, AID493232, AID504717, AID504718]; type: functional
T3 sequence (O43613 whole entry): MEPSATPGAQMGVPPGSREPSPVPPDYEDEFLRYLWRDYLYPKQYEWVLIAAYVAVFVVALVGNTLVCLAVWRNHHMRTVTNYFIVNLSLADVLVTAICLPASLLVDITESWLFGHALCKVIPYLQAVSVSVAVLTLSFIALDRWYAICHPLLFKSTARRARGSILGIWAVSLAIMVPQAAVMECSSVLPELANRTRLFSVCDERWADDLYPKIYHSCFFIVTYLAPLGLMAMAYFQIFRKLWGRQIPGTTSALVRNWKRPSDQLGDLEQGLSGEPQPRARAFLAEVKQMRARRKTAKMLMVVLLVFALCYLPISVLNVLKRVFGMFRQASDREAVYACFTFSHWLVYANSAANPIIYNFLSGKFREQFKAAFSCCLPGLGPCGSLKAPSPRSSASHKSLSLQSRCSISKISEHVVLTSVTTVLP

CHO-K1 = experiment: (§2) Counterscreen for antagonists of the orexin 1 receptor (OX1R; HCRTR1): Homogeneous time resolved fluorescence (HTRF)-based cell-based dose response assay to identify antagonists of the parental CHO-K1 cell line. [Related pubchem assays (depositor defined):AID434989, AID435008, AID463079, AID485270, AID492963, AID492964, AID492965, AID493232, AID504699, AID504701]; type: functional; settings: Cricetulus griseus
BJ [7] = experiment: cytotoxicity toward BJ-TERT fibroblasts, dose response, cell-based, RAS-independent, luminescence (AID 1933); type: functional; settings: Homo sapiens
BJ [8] = experiment: cytotoxicity toward BJ-TERT-LT-ST fibroblasts, dose response, cell-based, RAS-independent, luminescence (AID 1935); type: functional; settings: Homo sapiens;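 also: BJ fibroblasts immortalized with TERT plus LT and ST oncogenes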
[9] = cytotoxicity in HEK-293T NF-kB-Luc cells, dose response, cytotoxicity control for B/T-cell NF-kB inhibitor project, cell-based, uHTS hits (AID 489019); type: functional;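 also: IC50 reflects cytotoxicity as loss of cell viability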
Orexin receptor type 2 [10] = target: T4, Orexin receptor type 2 (Homo sapiens, UniProt O43614); experiment: Counterscreen assay for antagonists of the orexin 1 receptor (OX1R; HCRTR1): Homogeneous Time Resolved Fluorescence (HTRF)-based cell-based dose response assay for antagonists of the orexin 2 receptor (OX2R; HCRTR2), run by assay provider.; type: functional
T4 sequence (O43614 whole entry): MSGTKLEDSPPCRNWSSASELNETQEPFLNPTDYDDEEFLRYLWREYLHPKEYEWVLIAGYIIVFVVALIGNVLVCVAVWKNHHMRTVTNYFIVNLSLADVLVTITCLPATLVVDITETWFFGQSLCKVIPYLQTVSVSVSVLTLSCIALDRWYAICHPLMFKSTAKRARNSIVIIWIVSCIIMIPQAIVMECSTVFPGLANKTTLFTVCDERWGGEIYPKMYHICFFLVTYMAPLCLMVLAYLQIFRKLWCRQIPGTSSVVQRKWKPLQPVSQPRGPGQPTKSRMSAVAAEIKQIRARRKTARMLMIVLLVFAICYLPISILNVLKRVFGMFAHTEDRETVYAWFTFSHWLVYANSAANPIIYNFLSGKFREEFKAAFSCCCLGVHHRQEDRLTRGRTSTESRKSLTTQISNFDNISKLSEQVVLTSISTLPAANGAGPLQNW

[11] = as §2, with “Fluorescence-based” for “Homogeneous time resolved fluorescence (HTRF)-based”, “cell-based high throughput” for “cell-based”, “CHO” for “CHO-K1”; type: functional
[12] = cytotoxicity toward DRD oncogenic fibroblasts, dose response, cell-based, non-viral oncogenic, luminescence (AID 1934); type: functional; settings: Homo sapiens
Orexin receptor type 2 [13] = target: T4, Orexin receptor type 2; experiment: Counterscreen assay for antagonists of the orexin 1 receptor (OX1R; HCRTR1): Fluorescence-based cell-based dose response assay for antagonists of the orexin 2 receptor (OX2R; HCRTR2), run by assay provider.; type: functional
Jurkat = experiment: antigen receptor-induced NF-kB inhibitors, dose response, Jurkat, luciferase reporter, luminescence, B- and T-cell (AID 489004); type: functional, cell-based; settings: Homo sapiens;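 also: NF-kB luciferase reporter Jurkat cells stimulated with PMA plus ionomycin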
[14] = target: T3, Orexin/Hypocretin receptor type 1; experiment: as §1, with “Homogeneous Time Resolved Fluorescence (HTRF)-based” for “Fluorescence-based”; type: functional
[15] = NIH-3T3 fibroblast cytotoxicity, dose response, cytotoxicity control, cell-based, fluorescence, Alamar Blue, secondary assay (AID 2327); type: functional;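 also: NIH-3T3 mouse fibroblasts cultured with fluconazole at 8 µg/mL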
[16] = target: T5, Alkaline phosphatase, tissue-nonspecific isozyme (Homo sapiens, UniProt P05186); experiment: TNAP enzyme activators, dose response, selectivity assay for human IAP activator project, biochemical, TNAP isozyme, human IAP uHTS hits (AID 488886); type: functional;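 also: potency of compounds raising TNAP activity as a selectivity check on IAP activators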
T5 sequence (P05186 whole entry): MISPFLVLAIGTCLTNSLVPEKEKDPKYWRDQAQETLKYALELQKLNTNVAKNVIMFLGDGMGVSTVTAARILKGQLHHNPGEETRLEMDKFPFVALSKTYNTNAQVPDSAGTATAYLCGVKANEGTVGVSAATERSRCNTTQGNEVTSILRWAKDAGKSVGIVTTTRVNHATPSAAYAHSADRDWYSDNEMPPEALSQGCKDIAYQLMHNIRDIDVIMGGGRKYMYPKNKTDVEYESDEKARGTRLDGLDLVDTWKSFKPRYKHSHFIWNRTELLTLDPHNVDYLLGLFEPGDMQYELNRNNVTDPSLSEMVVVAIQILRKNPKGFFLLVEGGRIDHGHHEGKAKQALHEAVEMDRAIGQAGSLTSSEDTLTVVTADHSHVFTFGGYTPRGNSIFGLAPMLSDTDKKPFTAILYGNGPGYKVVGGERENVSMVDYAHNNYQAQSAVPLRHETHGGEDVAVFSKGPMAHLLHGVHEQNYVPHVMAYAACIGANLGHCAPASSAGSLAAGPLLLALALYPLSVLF

[17] = cytotoxicity toward NIH3T3 fibroblasts, dose response, counter-screen, cell-based, ATP luminescence, mouse fibroblasts (AID 2010); type: functional;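 also: cells exposed to compound for about 90 hours before reading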
[18] = insulin promoter down-regulators in MIN6 cells, imaging, high-content screening, mouse beta cells (AID 1628); type: functional
[19] = target: T6, Intestinal-type alkaline phosphatase (Homo sapiens, UniProt P09923); experiment: human intestinal alkaline phosphatase activators, dose response, biochemical, luminescence, uHTS hits (AID 463120); type: functional
T6 sequence (P09923 whole entry): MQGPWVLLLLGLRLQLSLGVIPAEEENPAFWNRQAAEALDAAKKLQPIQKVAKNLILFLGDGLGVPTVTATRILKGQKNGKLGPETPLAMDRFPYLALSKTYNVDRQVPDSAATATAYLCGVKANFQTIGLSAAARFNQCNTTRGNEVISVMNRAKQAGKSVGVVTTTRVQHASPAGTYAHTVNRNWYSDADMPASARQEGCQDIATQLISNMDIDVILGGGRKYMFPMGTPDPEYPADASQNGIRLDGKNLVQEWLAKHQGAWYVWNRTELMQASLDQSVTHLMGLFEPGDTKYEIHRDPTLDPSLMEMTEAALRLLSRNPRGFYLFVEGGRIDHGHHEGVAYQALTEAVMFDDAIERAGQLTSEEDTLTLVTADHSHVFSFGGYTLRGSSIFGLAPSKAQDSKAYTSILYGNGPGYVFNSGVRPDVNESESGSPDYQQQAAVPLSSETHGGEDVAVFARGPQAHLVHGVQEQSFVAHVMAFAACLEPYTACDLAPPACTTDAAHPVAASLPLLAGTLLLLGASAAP

[20] = target: T6, Intestinal-type alkaline phosphatase; experiment: human IAP activators, dose response, biochemical, luminescent, uHTS hits, set 2 (AID 488817); type: functional;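 also: potency of activators that raise enzyme activity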
[21] = cytotoxicity in MIN6 insulinoma cells, dose response, cytotoxicity control, cell-based, mouse insulinoma (AID 2122); type: functional;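 also: confirmatory high-throughput counterscreen run to flag cytotoxic compounds; mouse MIN-6 beta cells carrying an insulin promoter eGFP reporter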
INS1 = experiment: beta cell apoptosis inhibitors, cytokine rescue, dose response, luminescence, retest (AID 449756); type: functional, cell-based; settings: Rattus norvegicus;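 also: cell death triggered by IL-1 beta plus TNF-alpha plus IFN-gamma mixture; protective hits raise ATP signal compared with cytokine alone wells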
[22] = target: Intestinal-type alkaline phosphatase (Mus musculus, UniProt P24822); experiment: PubChem AID 488874; type: functional
Sequence of Intestinal-type alkaline phosphatase (Mus musculus, UniProt P24822) (P24822 whole entry): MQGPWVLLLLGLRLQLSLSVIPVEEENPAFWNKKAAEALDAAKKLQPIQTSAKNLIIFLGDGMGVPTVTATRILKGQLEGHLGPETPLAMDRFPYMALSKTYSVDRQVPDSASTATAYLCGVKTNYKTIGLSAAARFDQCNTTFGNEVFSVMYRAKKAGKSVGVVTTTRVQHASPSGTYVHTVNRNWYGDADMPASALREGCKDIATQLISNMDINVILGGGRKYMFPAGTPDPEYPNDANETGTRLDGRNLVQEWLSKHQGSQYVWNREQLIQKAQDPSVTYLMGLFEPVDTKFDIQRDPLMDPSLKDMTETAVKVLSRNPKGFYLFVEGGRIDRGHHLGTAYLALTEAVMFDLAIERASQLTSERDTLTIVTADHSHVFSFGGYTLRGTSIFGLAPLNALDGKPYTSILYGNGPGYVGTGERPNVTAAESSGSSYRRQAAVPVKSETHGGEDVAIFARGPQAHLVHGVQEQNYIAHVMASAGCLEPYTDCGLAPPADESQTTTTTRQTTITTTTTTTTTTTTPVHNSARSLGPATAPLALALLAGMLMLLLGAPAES

cells [23] = type: functional, cell-based
cells [24] = type: functional, cell-based; remark: listed apart in the source
[25] = inhibitors of intracellular T. cruzi replication, confirmation, NIH3T3 host cells, beta-gal luminescence (AID 2044); type: functional, cell-based;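 also: intracellular parasites grown in NIH/3T3 mouse fibroblasts as host cells; luminescent beta-galactosidase reporter signal from transgenic T. cruzi replicating inside host cells; inhibitors lower the luminescence signal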
[26] = C. albicans growth with fluconazole, confirmation, fluorescence, retest (AID 2467); type: functional, cell-based

Sequence of CAAX prenyl protease 1 (P47154 whole entry): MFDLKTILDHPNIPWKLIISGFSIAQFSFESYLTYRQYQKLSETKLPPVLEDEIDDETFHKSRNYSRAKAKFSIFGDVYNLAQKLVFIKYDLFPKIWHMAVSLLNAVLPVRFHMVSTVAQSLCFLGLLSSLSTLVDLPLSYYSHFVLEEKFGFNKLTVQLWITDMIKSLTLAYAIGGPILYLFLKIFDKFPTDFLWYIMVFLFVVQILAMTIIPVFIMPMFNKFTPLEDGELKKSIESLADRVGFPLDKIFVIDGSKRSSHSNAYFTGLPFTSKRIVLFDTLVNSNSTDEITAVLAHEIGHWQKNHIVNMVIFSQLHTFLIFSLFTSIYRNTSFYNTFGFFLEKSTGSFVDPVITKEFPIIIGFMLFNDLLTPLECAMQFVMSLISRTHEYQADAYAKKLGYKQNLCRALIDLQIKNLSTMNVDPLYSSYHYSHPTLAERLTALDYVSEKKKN

Cc1ccc2nc3c(c(N)c2c1)CCN3C
AC50 (CAAX prenyl protease 1): 16.6 µM (active) | EC50 [1]: > 50 µM (active) | AC50 [2]: 15.4 µM (active) | AC50 [3]: 21.7 µM (active) | EC50 [4]: 2.37 µM (active)

Cc1nn(-c2ccccc2)c(C)c1/C=N/NC(=O)c1cc(-c2cccs2)[nH]n1
EC50 (BJ [5]): 0.79 µM (active) | IC50 [6]: 3.99 µM (active) | IC50 (CHO-K1): > 66.2 µM (inactive) | EC50 (BJ [7]): 0.66 µM (inconclusive) | EC50 (BJ [8]): 0.601 µM (inconclusive) | IC50 [9]: 9.45 µM (active) | IC50 (Orexin receptor type 2 [10]): > 50 µM (inactive) | IC50 [11]: > 49.7 µM (inactive) | EC50 [12]: 0.644 µM (inconclusive) | IC50 (Orexin receptor type 2 [13]): 37 µM (inactive) | IC50 (Jurkat): 10.3 µM (active) | IC50 [14]: 2.99 µM (active)

CCOc1ccc(/C=N/NC(=O)c2[nH]ncc2Br)c(O)c1
EC50 [15]: 14.9 µM (active) | EC50 [16]: 11.5 µM (active) | EC50 [17]: 10.3 µM (active) | IC50 [18]: 3.83 µM (active) | EC50 [19]: 6.69 µM (active) | EC50 [20]: 8.97 µM (active) | IC50 [21]: 3.4 µM (active) | AC50 (INS1): 1.14 µM (active) | IC50 [22]: 73.8 µM (active) | EC50 (cells [23]): 7.33 µM (active) | EC50 (cells [24]): 191 µM (active) | EC50 [25]: 1.48 µM (active) | EC50 [26]: > 38 µM (not active)
